In one test the test system is TNF-α production. Put plainly: TNF-α production inhibitory effect in LPS-stimulated heparinized blood. The format is cell-based. Particulars: blood of a healthy person, 6 hours incubation, human TNF-α ELISA. The protocol: A heparinized blood sample collected from a healthy person was dispensed in 180 μl/well into a 96-well plate. A solution of compound 1 (final concentration of DMSO: 0.1% or less) was dispensed at 10 μl and the plate was allowed to stand at 37° C. for 30 minutes in a 5% CO2 incubator. The reaction was initiated by adding 10 μl of LPS solution. After 6 hours of incubation in a CO2 incubator (5% CO2, humidified), the plate was shaken and then centrifuged at 300×g for 5 minutes to recover 50 μl of the supernatant (blood plasma). The amount of TNF-α in the supernatant was measured using a human TNF-α ELISA kit (DIACLONE Cat. No. 850.090.096) in accordance with the method attached thereto.
In general terms: In an ELISA, binding on a coated surface is turned into a signal by an enzyme label.

The target in another test is PDE4. The test can be described thus: In vitro enzyme assay, PDE4 inhibitory activity. The format is biochemical. Particulars: PDE4 enzyme solution from U937 cells (derived from human monocyte), 3H-cAMP substrate, room temperature, 30 minutes; read-out: IC50 (concentration of 50% inhibition of PDE4 activity). The protocol:
U937 cells (derived from human monocyte) were cultured in PRMI 1640 medium containing 10% bovine fetal serum. The U937 cells were harvested and homogenized in 50 mM Tris-HCl buffer [pH 7.5, containing PMSF (1 mM), leupeptin (1 μg/ml) and pepstatin A (1 μg/ml)]. After centrifugation (at 15,000 rpm for 10 minutes), the supernatant was recovered and filtered through a 0.45 μm filter. The sample was applied to MonoQ (manufactured by Pharmacia, strong anion exchange resin) column and eluted by a density gradient of 0 to 0.8 M NaCl. Fractions from which the PDE activity was disappeared by 10 μM rolipram (a PDE4-selective inhibitor) were recovered and used as the enzyme solution for the measurement of PDE4 inhibitory activity.
The enzyme activity was measured by the following method. […] To an alumina column (100 μl), was applied 50 μl of the supernatant, eluted with 80 μl of 0.005 N hydrochloric acid, and radioactivity of the eluate was measured.
PDE4 inhibitory activity ratio of the compound of the present invention of formula (I) was calculated by the following equation: PDE4 activity inhibitory ratio (%)=(1−radioactivity in the presence of the compound of the present invention of formula (1)/radioactivity in the absence of the compound of the present invention of formula (I))×100 […]

Each structure is given as a SMILES string.

`N#CC1(c2ccc(OC(F)F)c(OC3CCCC3)c2)CCN(CC(=O)O)CC1` [compound 1, 2-(4-(3-cyclopentyloxy-4-difluoromethoxyphenyl)-4-cyanopiperidin-1-yl)acetic acid monohydrate]: in the test with TNF-α production, the “inhibitory activity against TNF-α production” value is on record as “dose-dependent inhibitory activity”. Besides, the IC50 on PDE4 stood at 42 nM.

The record behind these values is patent US7425567B2, “Piperidine derivative compounds and drugs containing the compounds as the active ingredient” (Ono Pharmaceutical Co., Ltd., priority 2002, dated 2008).
